Source: article PMC10175918 (Communications Biology, 2023)
Read-outs that look alike come from different tables or passages of the source.

Columns and labels:
Assay in all cases: TGFα-shedding assay-based GPCR screening with chimeric Gα subunit proteins
Assay type in all cases: cell-based
[1] = biological target: T1, 348 GPCRs (Homo sapiens, UniProt Q9GZQ6); details: 10µM, Favipiravir 100μM
T1 construct: expressed in transfected cells; host or cells: HEK293A

[2] = biological target: T2, 348 GPCRs (Homo sapiens, UniProt Q8TDU9); details: RXFP4 (relaxin/insulin-like family peptide receptor 4); 10µM, Favipiravir 100μM
T2 construct: expressed in transfected cells; host or cells: HEK293A
T2 sequence (Q8TDU9 whole entry): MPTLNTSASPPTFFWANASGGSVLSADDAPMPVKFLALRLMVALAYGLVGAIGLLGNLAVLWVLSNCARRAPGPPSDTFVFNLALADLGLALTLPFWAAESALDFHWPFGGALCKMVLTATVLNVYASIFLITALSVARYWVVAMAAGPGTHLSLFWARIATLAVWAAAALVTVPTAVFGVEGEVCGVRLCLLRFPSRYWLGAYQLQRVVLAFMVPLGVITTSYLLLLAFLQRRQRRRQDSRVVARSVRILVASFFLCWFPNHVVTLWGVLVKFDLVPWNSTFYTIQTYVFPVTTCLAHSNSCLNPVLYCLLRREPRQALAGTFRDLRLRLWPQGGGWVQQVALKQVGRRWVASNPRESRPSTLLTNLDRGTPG

[3] = biological target: T3, 348 GPCRs (Homo sapiens, UniProt O60883); details: 10µM, Favipiravir 100μM
T3 construct: expressed in transfected cells; host or cells: HEK293A
T3 sequence (O60883 26-481): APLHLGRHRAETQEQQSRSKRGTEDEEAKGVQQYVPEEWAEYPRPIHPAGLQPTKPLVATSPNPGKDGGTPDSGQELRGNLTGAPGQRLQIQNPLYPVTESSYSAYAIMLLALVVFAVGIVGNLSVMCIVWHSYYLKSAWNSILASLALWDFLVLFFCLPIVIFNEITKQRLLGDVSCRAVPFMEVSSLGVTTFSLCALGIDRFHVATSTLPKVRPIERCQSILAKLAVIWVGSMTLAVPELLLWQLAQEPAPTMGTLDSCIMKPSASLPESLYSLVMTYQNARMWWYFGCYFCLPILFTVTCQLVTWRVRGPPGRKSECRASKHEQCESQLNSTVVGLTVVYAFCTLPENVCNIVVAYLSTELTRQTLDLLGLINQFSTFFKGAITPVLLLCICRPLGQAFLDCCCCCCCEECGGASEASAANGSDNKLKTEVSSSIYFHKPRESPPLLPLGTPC

[4] = biological target: 348 GPCRs (Homo sapiens, UniProt Q96LA9); details: 10µM, Favipiravir 100μM
[5] = biological target: T4, 348 GPCRs (Homo sapiens, UniProt Q9Y5X5); details: 10µM, Favipiravir 100μM
T4 construct: expressed in transfected cells; host or cells: HEK293A
T4 sequence (Q9Y5X5 whole entry): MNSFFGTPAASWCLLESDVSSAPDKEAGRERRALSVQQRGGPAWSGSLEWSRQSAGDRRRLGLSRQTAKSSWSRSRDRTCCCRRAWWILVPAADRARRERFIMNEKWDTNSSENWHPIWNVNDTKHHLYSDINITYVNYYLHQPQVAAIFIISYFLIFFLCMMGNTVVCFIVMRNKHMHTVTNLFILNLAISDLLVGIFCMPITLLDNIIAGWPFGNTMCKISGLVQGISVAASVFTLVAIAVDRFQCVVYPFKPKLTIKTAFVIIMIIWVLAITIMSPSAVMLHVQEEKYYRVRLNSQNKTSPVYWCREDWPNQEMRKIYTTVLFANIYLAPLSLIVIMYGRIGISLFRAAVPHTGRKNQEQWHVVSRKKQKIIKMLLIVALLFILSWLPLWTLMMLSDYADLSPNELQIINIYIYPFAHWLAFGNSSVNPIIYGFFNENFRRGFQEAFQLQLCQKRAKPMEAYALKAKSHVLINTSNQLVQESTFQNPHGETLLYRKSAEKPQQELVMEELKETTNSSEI

[6] = biological target: T5, 348 GPCRs (Homo sapiens, UniProt Q9NQ84); details: 10µM, Favipiravir 100μM
T5 construct: expressed in transfected cells; host or cells: HEK293A
T5 sequence (Q9NQ84 24-441): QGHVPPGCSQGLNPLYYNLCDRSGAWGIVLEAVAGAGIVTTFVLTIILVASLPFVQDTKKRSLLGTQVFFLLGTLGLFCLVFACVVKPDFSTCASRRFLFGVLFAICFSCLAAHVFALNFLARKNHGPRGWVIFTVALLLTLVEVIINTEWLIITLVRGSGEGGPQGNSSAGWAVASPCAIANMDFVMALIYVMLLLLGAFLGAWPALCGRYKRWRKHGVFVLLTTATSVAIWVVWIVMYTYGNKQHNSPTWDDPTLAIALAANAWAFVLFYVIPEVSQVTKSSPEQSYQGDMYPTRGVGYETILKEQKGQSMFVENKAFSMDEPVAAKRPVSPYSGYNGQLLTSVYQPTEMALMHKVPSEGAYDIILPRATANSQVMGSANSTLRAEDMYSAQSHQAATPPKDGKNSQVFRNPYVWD

[7] = biological target: T6, 348 GPCRs (Homo sapiens, UniProt Q9NYW1); details: 10µM, Favipiravir 100μM
T6 construct: expressed in transfected cells; host or cells: HEK293A
T6 sequence (Q9NYW1 1-312): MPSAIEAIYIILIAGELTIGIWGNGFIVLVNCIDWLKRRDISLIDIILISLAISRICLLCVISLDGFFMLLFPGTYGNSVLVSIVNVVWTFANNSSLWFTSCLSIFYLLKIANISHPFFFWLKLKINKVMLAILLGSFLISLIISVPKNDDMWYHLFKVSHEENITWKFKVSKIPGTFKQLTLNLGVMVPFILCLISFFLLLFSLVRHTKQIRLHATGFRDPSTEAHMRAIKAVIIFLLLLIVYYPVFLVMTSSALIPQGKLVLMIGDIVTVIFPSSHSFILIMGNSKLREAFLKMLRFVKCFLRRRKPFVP

[8] = biological target: T7, 348 GPCRs (Homo sapiens, UniProt Q8TCW9)
T7 construct: expressed in transfected cells; host or cells: HEK293A
T7 sequence (Q8TCW9 whole entry): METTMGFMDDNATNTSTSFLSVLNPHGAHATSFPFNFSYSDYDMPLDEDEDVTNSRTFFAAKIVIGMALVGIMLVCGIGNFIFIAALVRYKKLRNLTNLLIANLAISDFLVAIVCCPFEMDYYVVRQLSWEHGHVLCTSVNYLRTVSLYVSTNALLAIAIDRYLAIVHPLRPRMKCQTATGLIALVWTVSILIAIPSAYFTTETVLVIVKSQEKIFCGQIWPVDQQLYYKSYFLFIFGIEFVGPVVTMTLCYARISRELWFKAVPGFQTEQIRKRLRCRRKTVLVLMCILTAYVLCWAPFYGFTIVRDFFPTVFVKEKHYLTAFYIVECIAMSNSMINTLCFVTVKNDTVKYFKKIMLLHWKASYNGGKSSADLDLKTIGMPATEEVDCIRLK

[9] = biological target: 348 GPCRs (Homo sapiens, UniProt P28223); details: 10µM, Favipiravir 100μM
Sequence of 348 GPCRs (Homo sapiens, UniProt P28223) (P28223 whole entry): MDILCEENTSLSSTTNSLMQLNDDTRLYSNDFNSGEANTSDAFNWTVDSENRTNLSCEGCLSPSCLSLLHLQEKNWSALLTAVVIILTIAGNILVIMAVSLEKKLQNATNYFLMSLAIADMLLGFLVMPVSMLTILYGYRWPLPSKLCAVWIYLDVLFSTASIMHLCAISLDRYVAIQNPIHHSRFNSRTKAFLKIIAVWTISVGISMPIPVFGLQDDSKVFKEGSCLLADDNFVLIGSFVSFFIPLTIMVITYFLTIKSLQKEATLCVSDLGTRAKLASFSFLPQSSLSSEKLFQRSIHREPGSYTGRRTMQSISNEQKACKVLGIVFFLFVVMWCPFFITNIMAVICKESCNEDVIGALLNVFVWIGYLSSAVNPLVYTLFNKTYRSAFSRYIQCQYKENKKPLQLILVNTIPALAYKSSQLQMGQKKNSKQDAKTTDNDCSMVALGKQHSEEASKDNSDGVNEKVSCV

[10] = biological target: 348 GPCRs (Homo sapiens, UniProt P47872); details: SCTR (secretin receptor); 10µM, Favipiravir 100μM
Sequence of 348 GPCRs (Homo sapiens, UniProt P47872) (P47872 23-440): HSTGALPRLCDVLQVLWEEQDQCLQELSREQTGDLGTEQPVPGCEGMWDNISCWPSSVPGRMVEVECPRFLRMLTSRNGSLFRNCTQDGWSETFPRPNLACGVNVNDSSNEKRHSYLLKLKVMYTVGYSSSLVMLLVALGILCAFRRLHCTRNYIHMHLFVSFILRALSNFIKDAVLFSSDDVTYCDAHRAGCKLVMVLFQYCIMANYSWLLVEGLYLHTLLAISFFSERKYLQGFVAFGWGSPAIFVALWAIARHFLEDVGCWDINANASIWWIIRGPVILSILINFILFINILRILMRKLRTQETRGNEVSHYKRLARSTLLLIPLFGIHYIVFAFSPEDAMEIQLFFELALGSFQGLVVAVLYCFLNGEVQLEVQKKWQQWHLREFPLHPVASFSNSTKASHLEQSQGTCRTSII

[11] = biological target: T8, 348 GPCRs (Homo sapiens, UniProt Q86Y34); details: 10µM, Favipiravir 100μM
T8 construct: expressed in transfected cells; host or cells: HEK293A
T8 sequence (Q86Y34 21-549): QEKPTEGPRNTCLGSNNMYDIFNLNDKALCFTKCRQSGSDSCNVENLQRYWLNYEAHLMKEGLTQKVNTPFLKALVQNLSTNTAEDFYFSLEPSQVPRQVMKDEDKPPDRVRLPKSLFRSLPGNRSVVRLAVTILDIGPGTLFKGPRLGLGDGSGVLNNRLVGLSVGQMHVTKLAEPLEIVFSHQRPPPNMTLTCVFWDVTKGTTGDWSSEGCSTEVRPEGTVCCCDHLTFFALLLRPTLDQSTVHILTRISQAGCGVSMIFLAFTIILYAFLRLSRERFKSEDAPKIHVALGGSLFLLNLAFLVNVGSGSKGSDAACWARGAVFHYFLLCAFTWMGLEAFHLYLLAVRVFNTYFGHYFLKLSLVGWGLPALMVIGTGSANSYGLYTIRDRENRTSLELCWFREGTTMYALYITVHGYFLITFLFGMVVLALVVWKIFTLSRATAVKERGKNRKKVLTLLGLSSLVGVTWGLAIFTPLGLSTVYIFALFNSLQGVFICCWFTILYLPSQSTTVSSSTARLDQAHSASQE

[12] = biological target: T9, 348 GPCRs (Homo sapiens, UniProt Q96LB1); details: 10µM, Favipiravir 100μM
T9 construct: expressed in transfected cells; host or cells: HEK293A
T9 sequence (Q96LB1 1-330): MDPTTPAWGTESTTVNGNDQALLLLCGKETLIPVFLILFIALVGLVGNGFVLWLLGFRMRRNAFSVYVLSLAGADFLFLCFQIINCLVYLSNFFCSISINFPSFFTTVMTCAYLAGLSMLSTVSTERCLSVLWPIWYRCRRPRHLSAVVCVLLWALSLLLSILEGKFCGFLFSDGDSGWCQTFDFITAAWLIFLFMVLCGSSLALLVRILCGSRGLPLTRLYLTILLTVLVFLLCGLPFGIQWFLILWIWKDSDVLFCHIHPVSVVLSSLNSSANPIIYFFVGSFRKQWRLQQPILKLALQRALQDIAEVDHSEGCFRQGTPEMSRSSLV

[13] = biological target: T10, 348 GPCRs (Homo sapiens, UniProt Q9UBS5); details: 10µM, Favipiravir 100μM
T10 construct: expressed in transfected cells; host or cells: HEK293A
T10 sequence (Q9UBS5 20-961): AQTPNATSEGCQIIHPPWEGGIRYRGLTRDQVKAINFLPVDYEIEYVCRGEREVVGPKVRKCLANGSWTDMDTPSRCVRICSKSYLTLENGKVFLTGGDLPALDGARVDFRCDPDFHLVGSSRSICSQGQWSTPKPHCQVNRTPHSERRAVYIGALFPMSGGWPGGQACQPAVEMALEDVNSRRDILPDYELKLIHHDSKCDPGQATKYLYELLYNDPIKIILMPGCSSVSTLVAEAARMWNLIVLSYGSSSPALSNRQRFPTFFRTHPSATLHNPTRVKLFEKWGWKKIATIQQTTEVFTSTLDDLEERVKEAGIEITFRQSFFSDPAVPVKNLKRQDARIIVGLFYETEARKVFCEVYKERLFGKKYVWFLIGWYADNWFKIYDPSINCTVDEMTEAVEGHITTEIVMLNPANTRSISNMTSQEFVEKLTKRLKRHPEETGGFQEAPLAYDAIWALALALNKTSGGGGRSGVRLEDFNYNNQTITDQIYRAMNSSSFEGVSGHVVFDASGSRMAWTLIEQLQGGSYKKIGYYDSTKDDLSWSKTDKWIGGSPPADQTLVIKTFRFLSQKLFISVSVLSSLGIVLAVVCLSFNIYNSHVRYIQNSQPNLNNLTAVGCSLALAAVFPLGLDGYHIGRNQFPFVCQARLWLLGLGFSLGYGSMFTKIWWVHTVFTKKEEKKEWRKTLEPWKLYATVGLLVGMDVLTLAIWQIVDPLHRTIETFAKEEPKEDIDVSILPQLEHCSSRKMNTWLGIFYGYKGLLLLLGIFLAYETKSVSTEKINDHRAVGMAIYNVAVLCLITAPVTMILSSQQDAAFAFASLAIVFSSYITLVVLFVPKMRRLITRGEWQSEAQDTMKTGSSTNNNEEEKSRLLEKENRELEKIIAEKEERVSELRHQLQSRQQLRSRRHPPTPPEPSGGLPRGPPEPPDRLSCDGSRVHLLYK

[14] = biological target: T11, 348 GPCRs (Homo sapiens, UniProt Q8NFJ6); details: 10µM, Favipiravir 100μM
T11 construct: expressed in transfected cells; host or cells: HEK293A
T11 sequence (Q8NFJ6 whole entry): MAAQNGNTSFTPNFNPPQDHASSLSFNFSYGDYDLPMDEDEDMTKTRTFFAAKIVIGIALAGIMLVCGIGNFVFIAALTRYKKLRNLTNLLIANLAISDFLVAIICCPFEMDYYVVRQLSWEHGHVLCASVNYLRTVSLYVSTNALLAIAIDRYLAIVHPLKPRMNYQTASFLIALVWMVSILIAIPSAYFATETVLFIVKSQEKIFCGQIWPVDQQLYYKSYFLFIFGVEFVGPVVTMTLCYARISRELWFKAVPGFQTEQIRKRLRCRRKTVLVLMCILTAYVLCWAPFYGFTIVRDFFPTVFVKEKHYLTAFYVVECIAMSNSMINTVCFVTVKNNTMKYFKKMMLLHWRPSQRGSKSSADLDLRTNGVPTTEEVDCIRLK

[15] = read-out: % GPCR activation compared to TPA, NPFFR1 (neuropeptide FF receptor 1)
[16] = read-out: % GPCR activation compared to TPA, GPR37L1 (G Protein-Coupled Receptor 37 Like 1)
[17] = read-out: % GPCR activation compared to TPA, MRGPRX4 (MAS-related GPR, member X4)
[18] = read-out: % GPCR activation compared to TPA, MRGX4 (MAS-related GPR, member X4)
[19] = read-out: % GPCR activation compared to TPA, NPFF2 (neuropeptide FF receptor 2)
[20] = read-out: % GPCR activation compared to TPA, GPRC5C (G protein-coupled receptor, family C, group 5, member C)
[21] = read-out: % GPCR activation compared to TPA, TAS2R9 (taste receptor, type 2, member 9)
[22] = read-out: % GPCR activation compared to TPA, GPCR PK1 (prokineticin receptor 1)
[23] = read-out: % GPCR activation compared to TPA, 5-HT2A (5-hydroxytryptamine receptor 2A)
[24] = read-out: % GPCR activation compared to TPA, GPR97 (Adhesion G Protein-Coupled Receptor G3 (ADGRG3))
[25] = read-out: % GPCR activation compared to TPA, MRGPRX2 (MAS-related GPR, member X2)
[26] = read-out: % GPCR activation compared to TPA, GABBR1 (gamma-aminobutyric acid (GABA) B receptor, 1)
[27] = read-out: % GPCR activation compared to TPA, PK2 (prokineticin receptor 2)
[28] = read-out: % GPCR activation compared to TPA, PROKR2 (prokineticin receptor 2)
[29] = NPFFR1 (neuropeptide FF receptor 1), read-out: % GPCR activation compared to TPA
[30] = GPR37L1 (G Protein-Coupled Receptor 37 Like 1), read-out: % GPCR activation compared to TPA
[31] = MRGPRX4 (MAS-related GPR, member X4), read-out: % GPCR activation compared to TPA
[32] = MRGX4 (MAS-related GPR, member X4), read-out: % GPCR activation compared to TPA
[33] = NPFF2 (neuropeptide FF receptor 2), read-out: % GPCR activation compared to TPA
[34] = GPRC5C (G protein-coupled receptor, family C, group 5, member C), read-out: % GPCR activation compared to TPA
[35] = TAS2R9 (taste receptor, type 2, member 9), read-out: % GPCR activation compared to TPA
[36] = 5-HT2A (5-hydroxytryptamine receptor 2A), read-out: % GPCR activation compared to TPA
[37] = GPR97 (Adhesion G Protein-Coupled Receptor G3 (ADGRG3)), read-out: % GPCR activation compared to TPA
[38] = MRGPRX2 (MAS-related GPR, member X2), read-out: % GPCR activation compared to TPA
[39] = GABBR1 (gamma-aminobutyric acid (GABA) B receptor, 1), read-out: % GPCR activation compared to TPA
[40] = PK2 (prokineticin receptor 2), read-out: % GPCR activation compared to TPA
[41] = PROKR2 (prokineticin receptor 2), read-out: % GPCR activation compared to TPA
[42] = GPCR PK1 (prokineticin receptor 1), read-out: % GPCR activation compared to TPA

T1 sequence (Q9GZQ6 whole entry): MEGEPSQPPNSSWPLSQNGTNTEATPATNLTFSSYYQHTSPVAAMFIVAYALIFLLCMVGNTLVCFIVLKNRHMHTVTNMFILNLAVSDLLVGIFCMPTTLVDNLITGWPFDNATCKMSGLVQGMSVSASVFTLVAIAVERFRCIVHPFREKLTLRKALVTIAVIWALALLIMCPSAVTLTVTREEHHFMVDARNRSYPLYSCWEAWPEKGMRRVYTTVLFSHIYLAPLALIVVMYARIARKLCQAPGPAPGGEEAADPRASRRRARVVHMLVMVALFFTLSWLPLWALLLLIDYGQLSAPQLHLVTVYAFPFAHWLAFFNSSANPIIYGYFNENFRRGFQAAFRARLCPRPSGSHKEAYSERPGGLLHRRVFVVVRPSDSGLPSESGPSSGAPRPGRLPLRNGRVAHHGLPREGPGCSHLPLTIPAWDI

SMILES | activation at 10 µM [1, 15] | % GPCR activation compared to TPA [2] | activation at 10 µM [3, 16] | activation at 100 µM [4, 17] | activation at 100 µM [4, 18] | activation at 10 µM [5, 19] | % GPCR activation compared to TPA [10] | activation at 10 µM [1, 29] | activation at 10 µM [3, 30] | activation at 100 µM [4, 31] | activation at 100 µM [4, 32] | activation at 10 µM [5, 33] | activation at 100 µM [6, 34] | activation at 10 µM [7, 35] | activation at 100 µM [9, 36] | activation at 100 µM [11, 37] | activation at 100 µM [12, 38] | activation at 100 µM [13, 39] | activation at 10 µM [14, 40] | activation at 100 µM [14, 41] | also measured
CC(C)OC(=O)[C@H](C)N[P@](=O)(OC[C@H]1O[C@@H](n2ccc(=O)[nH]c2=O)[C@](C)(F)[C@@H]1O)Oc1ccccc1 [sofosbuvir] | -1.9% | -1.565% | -1.91% | -0.776% | -14.4% | -0.549% | 0.153% |  |  |  |  |  |  |  |  |  |  |  |  |  | activation at 100 µM [6, 20]: -0.501%; activation at 10 µM [7, 21]: -0.791%; activation at 10 µM [8, 22]: -1.13%; activation at 100 µM [9, 23]: -1.66%; activation at 100 µM [11, 24]: -1.21%; activation at 100 µM [12, 25]: 0.383%; activation at 100 µM [13, 26]: -1.14%; activation at 10 µM [14, 27]: -0.621%; activation at 100 µM [14, 28]: -2.61%
NC(=O)c1nc(F)cnc1O [favipiravir, 6-fluoro-3-hydroxy-2-pyrazinecarboxamide] |  | 1.69% |  |  |  |  | -0.5125% | -3.31% | -2.32% | -1.47% | -11.1% | -0.818% | -1.31% | 2.37% | 2.2% | -1.79% | -2.37% | -4.01% | -4.29% | 0.524% | activation at 100 µM ([8]; GPCR PK1 (prokineticin receptor 1), 100μM, read-out: % GPCR activation compared to TPA): -2.82%
CCC(CC)COC(=O)[C@H](C)N[P@](=O)(OC[C@H]1O[C@@](C#N)(c2ccc3c(N)ncnn23)[C@H](O)[C@@H]1O)Oc1ccccc1 [remdesivir] | -0.49% | 0.9967% | -2.18% | -0.071% | -1.24% | -0.846% | -0.9507% |  |  |  |  |  |  |  |  |  |  |  |  |  | activation at 100 µM [6, 20]: -1.81%; activation at 10 µM [7, 21]: 1.69%; activation at 10 µM [8, 22]: -3.33%; activation at 100 µM [9, 23]: 4.22%; activation at 100 µM [11, 24]: -1.74%; activation at 100 µM [12, 25]: 0.19%; activation at 100 µM [13, 26]: -3.66%; activation at 10 µM [14, 27]: -3.23%; activation at 100 µM [14, 28]: 0.417%
N#C[C@@]1(c2ccc3c(N)ncnn23)O[C@H](CO)[C@@H](O)[C@H]1O [GS441524] |  | -0.3375% |  |  |  |  | 0.8944% | 1.07% | -2.03% | -1.84% | 0.701% | -0.904% | -1% | 0.686% | -1.21% | -0.758% | -2.44% | -3.77% | -2.39% | -1.59% | activation at 10 µM [8, 42]: -2.68%
CC(C)C(=O)OC[C@H]1O[C@@H](n2ccc(NO)nc2=O)[C@H](O)[C@@H]1O [molnupiravir] |  | -0.4598% |  |  |  |  | -0.08366% | -0.462% | -1.63% | -2.9% | -28.1% | -0.917% | -0.707% | 0.0718% | -0.697% | -1.08% | -3.06% | -1.05% | -5.79% | -1.79% | activation at 10 µM [8, 42]: -3.53%
